From patent publication US8012995B1, “Pharmaceutically active sulfonamide derivatives” (Merck Serono SA, priority 1999, dated 2011)

Columns and labels:
JNK2 = JNK2 (Homo sapiens, UniProt P45984); assay: JNK2 in vitro assay (SPA, GST-c-Jun phosphorylation); type: biochemical; conditions: amount necessary to achieve 50% inhibition, GST-c-Jun substrate
Description: (§1) JNK 2 and 3 in vitro assays: JNK3 and/or 2 assays are performed in 96 well MTT plates, by incubation of 0.5 μg of recombinant pre-activated GST-JNK or GST-JNK2 with 1 μg of recombinant, biotinylated GST-c-Jun and 2 μM ^33γ-ATP (2 nCi/μl), in the to presence or absence of sulfonamide inhibitors if formula I and in a reaction volume of 50 μl containing 50 mM Tris-HCl, pH 8.0; 10 mM MgCl2; 1 mM Dithiothreitol, and 100 μM NaVO4. The incubation is performed for 120 min. at R.T and stopped upon addition of 200 μl of a solution containing 250 μg of Streptavidine-coated SPA beads (Amersham, Inc.)^•, 5 mM EDTA, 0.1% Triton X-100 and 50 μM ATP, in phosphate saline buffer. After incubation for 60 minutes at RT, beads are sedimented by centrifugation at 1500×g for 5 minutes, resuspended in 200 μl of PBS containing 5 mM EDTA, 0.1% Triton X-100 and 50 μM ATP and the radioactivity measured in a scintillation β counter, following sedimentation of the beads as described above. By substituting GST-c Jun for biotinylated GST-1ATF2 or myelin basic protein, this assay can be used to measure inhibition of preactivated p38 and ERK MAP Kinases, respectively.
(§2) The values indicated in respect of JNK2 and 3, p38 and ERK2 refer to the IC50 (μM), i.e. the amount necessary to achieve 50% inhibition of said target (e.g. JNK2). From the above table it could be derived that said test compounds according to formula I do have a significant effect both on JNK2 and 3, but virtually no effect onto p38 and ERK2, thus delivering a quite selective inhibitory effect.

JNK3 = JNK3 (Homo sapiens, UniProt P53779); assay: JNK3 in vitro assay (SPA, GST-c-Jun phosphorylation); type: biochemical; conditions: amount necessary to achieve 50% inhibition, GST-c-Jun substrate
Sequence of JNK3 (P53779 whole entry, species assumed): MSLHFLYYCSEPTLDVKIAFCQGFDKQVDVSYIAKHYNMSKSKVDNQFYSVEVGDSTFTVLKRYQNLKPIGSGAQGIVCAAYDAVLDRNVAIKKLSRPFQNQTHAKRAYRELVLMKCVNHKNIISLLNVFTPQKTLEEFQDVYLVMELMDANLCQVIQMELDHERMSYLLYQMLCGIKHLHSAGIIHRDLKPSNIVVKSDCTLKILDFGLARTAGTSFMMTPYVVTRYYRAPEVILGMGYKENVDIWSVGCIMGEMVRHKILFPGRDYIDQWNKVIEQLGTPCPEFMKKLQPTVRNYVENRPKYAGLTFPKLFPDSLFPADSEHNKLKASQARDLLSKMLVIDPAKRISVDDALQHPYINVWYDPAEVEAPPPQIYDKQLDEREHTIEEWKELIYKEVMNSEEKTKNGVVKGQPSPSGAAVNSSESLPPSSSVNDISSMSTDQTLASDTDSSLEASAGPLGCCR
Description: as §1, §2

[1] = test system: IL-2 release by PMA+Iono-stimulated Jurkat cells; assay: IL-2 release assay (ELISA); type: cell-based; conditions: Homo sapiens, PMA+Ionomycine-stimulated Jurkat cells, 24 hours, read-out: % Inhibition of IL2 Production @3 uM
Description: Jurkat cells, a human T cell leukemia cell line (American Type Culture Collection # TIB 152) were cultured in RPMI 1640 medium (Gibco, BRL) supplemented with 10% of […] FCS, Glutamine and Penstrep. The cell suspension in the medium is diluted to give 2.10^6 cells/mL. The cells were plated (2.10^5 cells/well) on a 96-well plate containing different concentration of test compound (final concentration of compounds, 10, 3, 1, […], 0.1 μM). This mixture is incubated 30 minutes at 37° C. in a humidified CO2 atmosphere. Cells were then treated with 10 ul PMA+Ionomycine (0.1 μM and 1 μM final concentration) in all wells except negative control. In wells without compounds, 10 μl of RPMI 2% DMSO (=0.1% final) is added. Cells are incubated 24 hours at 37° C. and then the supernatant harvested (freeze at −20° C. if not used the same day) prior to performing IL-2 ELISA test on the supernatant.
IL-2 release into the medium by PMA+Iono-stimulated Jurkat cells, in presence or absence of test compounds is assayed by ELISA. Following the procedure described below
Transfer 100 μl capture antibody diluted in PBS at 5 μg/mL into a 96 well ELISA plate and incubate overnight at room temperature.
Aspirate each well and wash 3 times with Wash buffer. After the last wash, damp the plate.
1. Saturate with 200 μl PBS-10% FCS. Incubate 1 hour at room temperature.
2. Repeat the wash step 2.
• 1. Add 100 μl of sample or standard ([…]) and incubate 2 hours at room temperature. • 2. Wash 3 times. • 3. Add 100 μl of biotinylated anti-human IL-2 at 12.5 ng/mL. Incubate 2 hours at room temperature. • 4. Wash 3 times. • 5. Add 100 μl streptavidin-HRP (Zymed #43-4323) at 1:10′000. Incubate 30 minutes at room temperature. • 6. Wash 3 times • 7. Add 100 μl substrate solution (citric acid/Na2HPO4 (1:1)+H2O2 1:2000+OPD). Incubate 20-30 minutes at room temperature. • 8. Add 50 μl of stop solution to each well. • 9. Determine optical density using a microliter plate reader set to 450 nm with correction at 570 nm.

ERK2 = ERK2 (Homo sapiens, UniProt P28482); assay: ERK2 in vitro kinase assay (SPA, myelin basic protein substrate); type: biochemical; conditions: amount necessary to achieve 50% inhibition
Sequence of ERK2 (P28482 whole entry, species assumed): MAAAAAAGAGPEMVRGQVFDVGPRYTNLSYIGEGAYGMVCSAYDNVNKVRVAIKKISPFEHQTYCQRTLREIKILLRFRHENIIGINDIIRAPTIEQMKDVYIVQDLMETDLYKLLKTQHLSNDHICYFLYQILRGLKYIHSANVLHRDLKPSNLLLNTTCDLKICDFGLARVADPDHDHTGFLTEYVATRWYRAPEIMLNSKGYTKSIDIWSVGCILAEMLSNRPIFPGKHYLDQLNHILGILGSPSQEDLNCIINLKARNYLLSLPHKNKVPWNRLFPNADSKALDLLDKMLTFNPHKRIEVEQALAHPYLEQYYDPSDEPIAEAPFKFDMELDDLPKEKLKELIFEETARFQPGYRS
Description: as §1, §2

p38 = p38 (Homo sapiens, UniProt Q16539); assay: p38 in vitro kinase assay (SPA, GST-ATF2 substrate); type: biochemical; conditions: amount necessary to achieve 50% inhibition
Sequence of p38 (Q16539 whole entry): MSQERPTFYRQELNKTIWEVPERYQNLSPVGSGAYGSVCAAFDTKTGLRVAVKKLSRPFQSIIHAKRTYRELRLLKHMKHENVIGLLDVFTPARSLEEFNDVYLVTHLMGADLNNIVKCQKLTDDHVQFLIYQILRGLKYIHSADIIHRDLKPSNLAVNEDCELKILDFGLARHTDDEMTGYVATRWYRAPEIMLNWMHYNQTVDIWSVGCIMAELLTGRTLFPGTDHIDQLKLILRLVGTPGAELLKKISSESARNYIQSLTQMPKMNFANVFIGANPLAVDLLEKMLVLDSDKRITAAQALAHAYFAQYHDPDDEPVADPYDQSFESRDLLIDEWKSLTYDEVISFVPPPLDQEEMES
Description: as §1, §2

Hlr c-Jun HeLa cells = assay: C-Jun reporter assay (Dual-Luciferase); type: cell-based; conditions: Homo sapiens, Hlr c-Jun HeLa cells transfected with pMEKK1
Description: Hlr c-Jun HeLa cells are cultured in DMEM High Glc supplemented with 10% FCS (Sigma), 2 mM Glutamine (Gibco), P/S, Hygromycin b 100 μg/mL and G418 250 μg/mL
The cell suspension are diluted with medium to give about 3.5×10^6 cells/mL and 1 mL of cell suspension are put onto 2 10 cm culture dishes containing 9 mL of culture medium.
• Control: 0.2 μg pTK Renilla, 5.8 μg pBluescript KS, 500 μl OPTIMEM (GIBCO), 18 μl Fugene 6 • Induced: 0.1 μg pMEKK1, 0.2 μg pTK Renilla, 5.7 μg pBluescript KS, 500 μl OPTIMEM (GIBCO), 18 μl Fugene 6 30′ RT
The transfection mixture is added to the plated cells. The plates are incubated over night at 37° C. in a humidified atmosphere of 5% CO2 in air
A 96 wells plate containing 100 μl of culture medium per well is prepared
Negative control (vehicle): 2 μl of DMSO is added to the 100 μl (in triplicate).
Compound: 2 μl of Hit compound stock dilution are added to the 100 μl (in triplicate).
The transfected cells are trypsinised and ressuspend in 12 mL of culture medium.
100 μl of the dilution are added to each of the 96 wells plate.
The plate is incubated over night at 37° C. in a humidified atmosphere of 5% CO2 in air
Dual-Luciferase™ Reporter Assay System (Promega)
The medium is removed from the plate and the cells washed two times with 100 μl PBS Completely remove the rinse solution before applying PLB reagent. Dispense into each culture well […] of 1×PLB. Place the culture plates on a rocking platform or orbital shaker with gentle
rocking/shaking to ensure complete and even coverage of the cell monolayer with 1×PLB. Rock the culture plates at room temperature for 15 minutes. Transfer 20 μl of the lysate into a white opaque 96 wells plate. Read in a luminometer.
• Inject 50 μl of Luciferase Assay Reagent II wait 5″, read 10″ • Inject 50 μl of Stop & Glo® Reagent wait 5″, read 10″ Check RLU Luciferase/RLU Renilla *1000

Sequence of JNK2 (P45984 whole entry, species assumed): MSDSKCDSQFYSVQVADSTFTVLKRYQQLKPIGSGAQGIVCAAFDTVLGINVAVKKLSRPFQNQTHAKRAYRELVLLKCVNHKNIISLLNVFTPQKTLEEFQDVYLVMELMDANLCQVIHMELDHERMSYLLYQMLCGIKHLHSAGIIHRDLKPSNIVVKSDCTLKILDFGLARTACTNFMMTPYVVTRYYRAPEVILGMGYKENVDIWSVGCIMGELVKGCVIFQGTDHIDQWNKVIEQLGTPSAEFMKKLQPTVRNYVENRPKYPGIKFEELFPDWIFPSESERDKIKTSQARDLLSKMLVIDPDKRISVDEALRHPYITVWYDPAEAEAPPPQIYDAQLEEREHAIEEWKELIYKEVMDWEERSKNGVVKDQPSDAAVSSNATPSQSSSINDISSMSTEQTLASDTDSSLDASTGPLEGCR

O=C(NCc1ccc(S(=O)(=O)N2CCC(Nc3cccc(S(=O)(=O)C(F)(F)F)c3)CC2)s1)c1ccc(Cl)cc1 [Example 2, 4-Chloro-N-{5-[4-(3-Trifluoromethanesulfonyl-phenylamino)-piperidine-1-sulfonyl]-thiophen-2-ylmethyl}-benzamide]
melting point: 198 to 199 °C

CCCc1cccc(NC2CCN(S(=O)(=O)c3ccc(CNC(=O)c4ccc(Cl)cc4)s3)CC2)c1 [Example 110, 4-chloro-N-{[5-({4-[3-propylanilino]piperidin-1-yl}sulfonyl)thien-2-yl]methyl}benzamide]
IC50 (JNK2): 0.31 µM
IC50 (JNK3): 0.11 µM
melting point: 169 to 170 °C
inhibition at 3 µM [1]: > 30%
IC50 (ERK2): > 30 µM
IC50 (p38): > 30 µM
inhibition at 10 µM (Hlr c-Jun HeLa cells): > 30%
